Laboratory results published in article PMC10810651, “Discovery of novel and potent CDK8 inhibitors for the treatment of acute myeloid leukaemia” (Journal of Enzyme Inhibition and Medicinal Chemistry, 2024).

Tests used:
CDK8 = CDK8 (Homo sapiens, UniProt P49336); test: CDK8 enzyme activity assay (ADP-Glo Kinase Assay); type: biochemical; conditions: means ± SD
Protocol: Some of them with high inhibition rates were further measured for their IC50 values. Compound SEL-120 34 A was selected as a positive control. [table] [table] page 14: CO2 atmosphere incubator for 24 h. Then, medium with compound at the concentrations of 100, 20, 4, 0.8, 0.016 μM was added into each well for another 48 h and incubated with CCK-8 (10 μL) for 2 h at 37 °C. The absorbance value at 450 nm was measured by the microplate reader (PerkinElmer Envision). 1.4 Kinase Assay The kinase inhibition was detected by ADP-Glo™ Kinase Assay (Promega) using a black 384-well plate. The active CDK8 kinase was diluted in mixture (5 ng enzyme, 0.5 μg substrate, 50 μM DTT, 1 μL reaction buffer and added ddH2O to 3 μL each well) and the final ATP concentrations of was 50 μM. After incubation at room temperature, ADP-Glo™ solution and kinase detection reagent was added. The data was collected by the microplate reader. 1.5 Cellular thermal shift assay HCT-116 cells were cultured in cell culture dishes and treated with 5 μM compound 12 for 4 h. HCT-116 cells were collected, washed by PBS and cell suspensions were divided into 12 PCR tubes equally. Then,11 tubes were heated at 37, […] After that, cells were broken by ultr asonic treatment and centrifuged at 12000 rpm for 20 min. The supernatant was analyzed by western blot. 1.6 Biotin-pulldown assay After co-treated with 2 μM biotinylated compound and compound 12 for 12 h, HCT-116 cells were lysed with NP-40 containing PMSF and centrifuged at 14000 r for 30 min at 4 °C. Then, 40 μL supernatant was used as the input by adding 10 μL 5×SDS loading buffer, and the remains were mixed with Streptavidin Agarose (Novex, Carlsbad, CA, USA). After 6 h incuba tion at 4 °C, the beads were washed three times using lysis buffer and resuspended in 2× SDS loading buffer. HEK -293T cells overexpressed flag -tagged CDK8 were treated using above method. The samples were analyzed by western blot.

A375 = test: Antiproliferative CCK-8 assay, A375; type: cell-based; conditions: Homo sapiens, A-375; A375, CCK-8 assay, means ± SD; read-out: GC50 (the source's name)
Excerpt: Compounds12, 13 and 30 were selected for further cell activity assessments based on the enzymatic activity assessment results. molm-13 and MV4-11(acute myeloid lineage leukaemia cells), MGC-803 (gastric cancer cell), MDA-MB-231(breast cancer cell), A375 (melanoma cell), A549 (lung cancer cell), HCT-116, SW-480 and HT-29 (colorectal cancer cells) were selected to evaluate antitumor activity in vitro, GES-1 (gastric mucosal epithelial cell) was selected to evaluate toxicity in vitro.
CO2 atmosphere incubator for 24 h. Then, medium with compound at the concentrations of 100, 20, 4, 0.8, 0.016 μM was added into each well for another 48 h and incubated with CCK-8 (10 μL) for 2 h at 37 °C. The absorbance value at 450 nm was measured by the microplate reader (PerkinElmer Envision). […]

CDK8, sequence (P49336 whole entry): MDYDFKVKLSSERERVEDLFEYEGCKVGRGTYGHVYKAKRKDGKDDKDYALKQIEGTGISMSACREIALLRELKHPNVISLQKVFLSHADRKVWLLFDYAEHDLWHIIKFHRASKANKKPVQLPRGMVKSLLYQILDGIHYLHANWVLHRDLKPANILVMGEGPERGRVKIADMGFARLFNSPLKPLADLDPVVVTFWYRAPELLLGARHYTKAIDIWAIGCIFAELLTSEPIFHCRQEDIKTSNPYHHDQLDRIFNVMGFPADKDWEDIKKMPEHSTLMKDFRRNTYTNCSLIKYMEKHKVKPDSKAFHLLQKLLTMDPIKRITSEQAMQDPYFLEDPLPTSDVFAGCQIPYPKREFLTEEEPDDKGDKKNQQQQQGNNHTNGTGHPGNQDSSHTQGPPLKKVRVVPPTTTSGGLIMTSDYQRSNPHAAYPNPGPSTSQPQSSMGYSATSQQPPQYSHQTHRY
CDK8, sequence (P24863 whole entry partner): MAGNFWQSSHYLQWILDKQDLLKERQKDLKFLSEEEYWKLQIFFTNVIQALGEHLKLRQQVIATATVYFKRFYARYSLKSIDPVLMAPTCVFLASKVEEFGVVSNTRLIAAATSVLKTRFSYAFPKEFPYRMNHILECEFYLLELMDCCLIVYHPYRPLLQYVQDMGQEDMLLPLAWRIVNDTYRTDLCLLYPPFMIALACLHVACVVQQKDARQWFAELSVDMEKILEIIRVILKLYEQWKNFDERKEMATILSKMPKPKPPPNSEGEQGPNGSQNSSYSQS

NC(=O)c1cccc(-c2cnc3[nH]cc(-c4ccoc4)c3c2)c1 [Compound 12, 3-(3-(furan-3-yl)-1H-pyrrolo[2,3-b]pyridin-5-yl)benzamide]
inhibition at 0.2 µM (CDK8; CDK8, 200 nM, two experiments, read-out: Inhibition rate @ 200 nM (%)): 80.9 ± 3.5%
IC50 (CDK8; three experiments): 39.2 ± 6.3 nM
IC50 (A375): 1000 ± 230 nM
